Assay results from patent publication US10513512B2, “Flavanone derivatives, and preparation method and use thereof” (Xuanwu Hospital of Capital Medical University, priority 2016, dated 2019).

What was measured:
[1] = biological target: dopamine D2 receptor (DRD2) (Homo sapiens (Human), UniProt P14416); test: Dopamine D2 receptor antagonism, Fluo-4 calcium fluorescence in HEK293 cells stably expressing DRD2/Gα16; type: cell-based; settings: 50 nM Dopamine as agonist, read-out: IC50 for inhibiting dopamine D2 receptor
dopamine D2 receptor (DRD2), sequence (P14416 whole entry): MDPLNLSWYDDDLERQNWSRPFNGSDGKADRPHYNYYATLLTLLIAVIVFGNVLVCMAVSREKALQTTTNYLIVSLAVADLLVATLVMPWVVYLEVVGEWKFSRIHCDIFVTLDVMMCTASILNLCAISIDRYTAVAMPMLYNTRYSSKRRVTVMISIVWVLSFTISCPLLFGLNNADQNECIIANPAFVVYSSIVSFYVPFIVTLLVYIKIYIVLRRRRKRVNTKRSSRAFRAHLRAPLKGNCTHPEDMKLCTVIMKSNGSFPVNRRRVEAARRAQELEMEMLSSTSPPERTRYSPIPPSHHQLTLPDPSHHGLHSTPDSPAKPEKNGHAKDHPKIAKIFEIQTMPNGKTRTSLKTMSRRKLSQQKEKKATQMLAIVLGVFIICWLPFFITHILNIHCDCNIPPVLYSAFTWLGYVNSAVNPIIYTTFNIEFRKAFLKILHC
Description: Objective: positive symptoms (hallucination, delusion, etc.) in patients with schizophrenia may be associated with dopamine (DA) hyperfunction in subcortical limbic system, and antipsychotic drugs, which block Dopamine D2 Receptor (DRD2), can effectively control positive symptoms of schizophrenia. By establishing a cell line co-transfected with DRD2 and Gα16, the activated DRD2 can activate Gα16 protein, thereby activating phospholipase C (PLC) to produce inositol 1,4,5-triphosphate (IP3) and diacylglycerol (DAG), wherein IP3 can bind to the IP3 receptor on endoplasmic reticulum and mitochondria, resulting in intracellular calcium release. Therefore, the determination of a change in intracellular calcium can be used as a method for detecting the activated state of DRD2.
Fluo-4/AM was a calcium fluorescent probe indicator for determining calcium ions. In this experiment, a Fluo-4 fluorescence method was used to determine the level of activated Gα protein by measuring the fluorescence intensity excited by intracellular calcium ions. If a compound could activate DRD2, the calcium influx was enhanced; on the contrary, if a compound could antagonize DRD2, the calcium influx was reduced.
Methods: HEK293 cells stably expressing DRD2/Gα16 (a human embryonic kidney cell line, derived from Shanghai Institute of Materia Medica, Chinese Academy of Sciences) were seeded in a 96-well plate (the culture solution was 90% DMEM+10% fetal bovine serum), and incubated overnight. The culture solution was pipetted off, and a freshly prepared dye Fluo-4/AM was added. The cells were incubated in a 37° C. incubator for 40 min. The dye was completely pipetted off. After the cells were washed with a freshly prepared calcium buffer, a calcium buffer (50 μl) dissolved with a test drug was added. FlexStation II instrument was used in the determination. A calcium buffer (25 μl) dissolved with a known agonist was added automatically by the instrument at the fifteenth second, and the fluorescence value at 525 nm (an excitation wavelength of 485 nm) was finally read. […] IC50 value was calculated by GraphPad Prism.

[2] = tested on: Iba-1-labeled microglial cells in the brain of Cuprizone model mice; test: Microglial cell activation in Cuprizone mouse model: Iba-1 immunohistochemical staining; type: in vivo; settings: 25, 50 mg/kg, FIG. 10
Description: Objective: microglial activation and neuroinflammation are the important pathogenesis for many central nervous system diseases. Iba-1 could specifically label microglial cells. In this experiment, immunohistochemical method was used to study the effects of the compounds of the invention on Iba-1-labeled microglial cells in the brain of Cuprizone model mice.
Methods: Cuprizone mouse model establishment and administration method were the same as those described in Experimental example 4. After ethological tests were performed, the mice were anaesthetized by intraperitoneal injection of 10% chloral hydrate. After perfusion, brain tissue was taken and fixed with […] paraformaldehyde, and then frozen and sliced. Immunohistochemical staining: the frozen sections were inactivated with 3% H2O2 for 10 min and rinsed with PBS; the tissues were blocked with 10% serum and incubated at 37° C. for 1 h. Serum was washed off and a primary antibody (an anti-Iba-1 antibody) was added dropwise. The resultant mixture was kept at 4° C. overnight. After rinsing with PBST, a biotin-conjugated goat anti-rabbit IgG antibody (a secondary antibody) was added dropwise, and incubated at 37° C. for 2 hrs. After rinsing with PBST, a horseradish peroxidase-conjugated streptavidin (a third antibody) was added dropwise, and incubated at 37° C. for 2 hrs. […] Iba-1 positive cells were observed under microscope, and counted.

[3] = tested on: MK-801-induced hyperlocomotion schizophrenia model in mice; test: MK-801-induced hyperlocomotion schizophrenia model in mice (open-field test); type: in vivo, mouse; settings: within 210 min; for Distance of central district activity / Total distance traveled: 50 mg/kg intragastric, Balb/c mice, MK-801 0.6 mg/kg i.p., Mean ± SE, n = 10; for distance of center square activity, effect in words / total distance of spontaneous activity, effect in words: intragastrical administration, MK-801 model mice
Description: Objective: Glutamatergic hypofunction is one of the pathogenesis for mental disorders such as schizophrenia. N-methyl-D-aspartic acid (NMDA) receptor antagonists can induce schizophrenia-like effects. In this experiment, a hyperlocomotion schizophrenia model in mice induced by dizocilpine (MK-801), a NMDA receptor antagonist, was used to investigate the in vivo activity of the compounds P6, P5, P4 and P7 of the invention.
Methods: SPF grade inbred Balb/c male mice with no special pathogens (purchased from Laboratory Animal Center of Capital Medical University), weighed (20±2) g, were randomly divided into a control group, a model group, and drug groups. The mice were adapted to the rearing environment for one week, and then were intragastrically administered for 3 days, wherein the control group and model group were intragastrically administered with physiological saline, and on Day 4, the mice were administered prior to test, and then were tested for 60 min in an Open-Field Activity Monitoring System. The control group was then intraperitoneally injected with physiological saline, the model group and the drug groups were intraperitoneally injected with a solution (0.6 mg/kg) of a NMDA receptor antagonist dizocilpine (MK-801), and the mice of these groups were further monitored for spontaneous activity and center square activity within 210 minutes, wherein spontaneous activity was used to reflect the positive symptom of rapid motion in schizophrenia, and center square activity was used to evaluate the anxiety status of schizophrenia.

Cuprizone model mice = test: Ethological change in Cuprizone model mice (Y-maze and open-field behavior test); type: in vivo, mouse; settings: intragastrical administration; for number of arm entries in Y-maze, effect in words / spontaneous alternation in Y-maze, effect in words: within 8 min; for number of arm entries in Y-maze, effect in words: FIG. 6; for spontaneous alternation in Y-maze, effect in words: FIG. 7; for total distance of spontaneous activity in open-field test, effect in words: within 10 min, FIG. 8
Description: Objective: neuroinflammation, pathological changes in white matter, and demyelination are the important pathogenesis for many central nervous system diseases. Cuprizone (dicyclohexanoneoxaly dihydrazone) can cause changes such as inflammation, demyelination, axonal injury, and cognitive function impairment. In this experiment, Y-maze and open-field behavior test were used to study the effects of the compounds of the invention on memory function and motion in a Cuprizone mouse model.
Methods: SPF grade inbred C57BL/6 male mice, weighed (20±2) g, were randomly divided into a control group, a model group, and drug groups. The mice were adapted to the rearing environment for 3 days. Then, the control group was fed with a normal feed, and the other groups were fed with a feed containing 0.2% Cuprizone for model establishment. During model establishment, the mice in each group were intragastrically administered with a corresponding dose of drug, and were reared for 5 weeks. The mice were then subjected to the Y-maze and open field behavior test, wherein the number of arm entries in Y-maze was used to reflect the motion of mice; the spontaneous alternation in Y maze was used to reflect the working memory of mice; and the spontaneous activity in open-field behavior test was used to reflect the motion of mice.

[4] = tested on: myelin basic protein (MBP) in the frontal cortex of Cuprizone model mice; test: Demyelination in Cuprizone mouse model: MBP content by Western blot; type: in vivo; settings: 25 and 50 mg/kg groups, FIG. 9
Description: Objectiv: pathological changes in white matter and demyelination are the important pathogenesis for many central nervous system diseases and mental disorders. Cuprizone can cause demyelination and pathological changes in white matter. Myelin basic protein (MBP) is a marker protein for myelination of axons, and is the main component of myelin sheath. In this experiment, Western Blot method was used to study the effects of the compounds of the invention on the MBP content and demyelination in the brain of Cuprizone model mice. Methods: Cuprizone mouse model establishment and administration method were the same as those described in Experimental example 4. After ethological tests were performed, the mice were anaesthetized by intraperitoneal injection of 10% chloral hydrate. The brains were harvested and stored at −80° C. Western blot assay: brain tissue was lysed with lysate to extract protein, and the protein concentration was determined. SDS-PAGE gel electrophoresis was performed, the protein was transferred onto a membrane, and the membrane was blocked. The protein was incubated with an anti-MBP antibody (a primary antibody) overnight at 4° C. in a refrigerator. […] Signal intensity for each protein band was analyzed using FluorChem 8900 gray-scale analysis software.

Compound | IC50 [1] | number of Iba-1-labeled microglial cells in the brain, effect in words [2] | Distance of central district activity [3] | Total distance traveled [3] | distance of center square activity, effect in words [3] | total distance of spontaneous activity, effect in words [3] | number of arm entries in Y-maze, effect in words (Cuprizone model mice) | spontaneous alternation in Y-maze, effect in words (Cuprizone model mice) | total distance of spontaneous activity in open-field test, effect in words (Cuprizone model mice) | MBP content in frontal cortex, effect in words [4]
COc1ccc(C2CC(=O)c3c(O)cc(OCCCCN4CCN(c5ccccc5OC)CC4)cc3O2)cc1 (stereo not drawn) [Compound P1, 5-hydroxy-2-(4-methoxyphenyl)-7-(4-(4-(2-methoxyphenyl)-piperazin-1-yl)-butoxy)-chroman-4-one] | 205 nM |  |  |  |  |  |  |  |  | 
COc1ccc(C2CC(=O)c3c(O)cc(OCCCN4CCN(c5ccccc5OC)CC4)cc3O2)cc1 (stereo not drawn) [Compound P6, 5-hydroxy-2-(4-methoxyphenyl)-7-(4-(4-(2-methoxyphenyl)-piperazin-1-yl)-propoxy)-chroman-4-one] | 220 nM | could significantly reduce the number of microglial cells | 10181 ± 2110 cm | 46922 ± 2233 cm | could shorten the total distance of spontaneous activity and the distance of center square activity | could shorten the total distance of spontaneous activity | could reduce the number of arm entries | enhance the spontaneous alternation | could shorten the total distance of spontaneous activity | 
COc1ccccc1N1CCN(CCCCOc2cc(O)c3c(c2)OC(c2ccc(F)cc2)CC3=O)CC1 (stereo not drawn) [Compound P3, 5-hydroxy-2-(4-fluorophenyl)-7-(4-(4-(2-methoxyphenyl)-piperazin-1-yl)-butoxy)-chroman-4-one] | 57.3 nM |  |  |  |  |  |  |  |  | 
O=C1CC(c2ccc(F)cc2)Oc2cc(OCCCCN3CCC(c4noc5cc(F)ccc45)CC3)cc(O)c21 (stereo not drawn) [Compound P4, 5-hydroxy-2-(4-fluorophenyl)-7-(4-(4-(6-fluoro-benzo[d]isoxazol-3-yl)-piperidin-1-yI)-butoxy)-chroman-4-one] | 87.7 nM |  | 11098 ± 1422 cm | 39222 ± 4300 cm |  |  |  |  |  | could significantly enhance the MBP content
COc1ccc(C2CC(=O)c3c(O)cc(OCCCN4CCC(c5noc6cc(F)ccc56)CC4)cc3O2)cc1 (stereo not drawn) [Compound P7, 5-hydroxy-2-(4-methoxyphenyl)-7-(4-(4-(6-fluoro-benzo[d]isoxazol-3-yl)-piperidin-1-yl)-propoxy)-chroman-4-one] | 116 nM |  | 7913 ± 1666 cm | 37051 ± 4308 cm | could shorten the total distance of spontaneous activity and the distance of center square activity | could shorten the total distance of spontaneous activity |  |  |  | 
COc1ccccc1N1CCN(CCCCOc2cc(O)c3c(c2)OC(c2ccc(C)cc2)CC3=O)CC1 (stereo not drawn) [Compound P2, 5-hydroxy-2-(4-methylphenyl)-7-(4-(4-(2-methoxyphenyl)-piperazin-1-yl)-butoxy)-chroman-4-one] | 346 nM |  |  |  |  |  |  |  |  | 
COc1ccc(C2CC(=O)c3c(O)cc(OCCCCN4CCC(c5noc6cc(F)ccc56)CC4)cc3O2)cc1 (stereo not drawn) [Compound P5, 5-hydroxy-2-(4-methoxyphenyl)-7-(4-(4-(6-fluoro-benzo[d]isoxazol-3-yl)-piperidin-1-yl)-butoxy)-chroman-4-one] | 51.3 nM |  | 9211 ± 1845 cm | 30914 ± 3351 cm | could shorten the total distance of spontaneous activity and the distance of center square activity | could shorten the total distance of spontaneous activity | could reduce the number of arm entries | enhance the spontaneous alternation | could shorten the total distance of spontaneous activity | could significantly enhance the MBP content
